Data as given in US7371769B2, “Tetrahydropyridin-4-yl indoles with a combination of affinity for dopamine-D2 receptors and serotonin reuptake sites” (Solvay Pharmaceuticals B.V., priority 2004, dated 2008).
Where a name gives a salt, the structure may show the parent alone.

Key:
serotonin reuptake sites = molecular target: T1, serotonin reuptake sites (Rattus norvegicus, UniProt P31652); assay: In vitro affinity for serotonin reuptake sites ([3H]-paroxetine binding assay); details: read-out: 5-HT reuptake pKi (converted)
T1 construct: from tissue; host or cells: rat cortical membranes (from the title of the cited method only)
T1 sequence (P31652 whole entry): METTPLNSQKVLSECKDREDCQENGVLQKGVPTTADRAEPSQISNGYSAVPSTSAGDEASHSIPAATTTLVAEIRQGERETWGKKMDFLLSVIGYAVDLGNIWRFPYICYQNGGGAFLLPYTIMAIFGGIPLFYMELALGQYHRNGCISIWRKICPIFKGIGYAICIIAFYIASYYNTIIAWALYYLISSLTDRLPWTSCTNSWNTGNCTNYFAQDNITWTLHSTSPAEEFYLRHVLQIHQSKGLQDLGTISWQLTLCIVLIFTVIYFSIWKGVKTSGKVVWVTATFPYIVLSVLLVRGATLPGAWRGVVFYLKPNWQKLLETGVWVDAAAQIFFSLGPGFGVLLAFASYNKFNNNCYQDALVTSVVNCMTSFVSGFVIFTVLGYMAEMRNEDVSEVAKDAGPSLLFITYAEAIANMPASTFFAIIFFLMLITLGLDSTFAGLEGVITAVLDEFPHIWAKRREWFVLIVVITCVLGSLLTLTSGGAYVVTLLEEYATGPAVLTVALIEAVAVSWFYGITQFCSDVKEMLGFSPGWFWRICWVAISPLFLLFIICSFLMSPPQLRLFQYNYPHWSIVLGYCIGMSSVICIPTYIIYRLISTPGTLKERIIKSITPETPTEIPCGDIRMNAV
Description: In vitro Affinity for Serotonin Reuptake Sites
Affinity of the compounds for serotonin reuptake sites was determined using the receptor binding assay described by E. Habert et al.,: “Characterisation of [^3H]-paroxetine binding to rat cortical membranes”, Eur. J. Pharmacol., 118, 107-114, 1985.
(§1) The affinity of the compounds of the invention for dopamine-D2 receptors and serotonine reuptake sites was determined as described above. From the binding affinity measured for a given compound of formula (1), one can estimate a theoretical lowest effective dose. At a concentration of the compound equal to twice the measured Ki-value, 100% of the receptors likely will be occupied by the compound. Converting that concentration to mg of compound per kg of patient yields a theoretical lowest effective dose, assuming ideal bioavailability. Pharmacokinetic, pharmacodynamic, and other considerations may alter the dose actually administered to a higher or lower value. The dosage expediently administered is 0.001-1000 mg/kg, preferably 0.1-100 mg/kg of patient's bodyweight.

dopamine-D2 receptors = molecular target: T2, dopamine-D2 receptors (Rattus norvegicus, UniProt P61169); assay: In vitro affinity for dopamine-D2 receptors ([3H]-spiroperidol receptor binding assay); details: read-out: Dopamine-D2 pKi (converted)
T2 construct: labels dopamine receptors in rat pituitary and brain; from tissue; host or cells: rat pituitary / brain (from the title of the cited method only)
T2 sequence (P61169 whole entry): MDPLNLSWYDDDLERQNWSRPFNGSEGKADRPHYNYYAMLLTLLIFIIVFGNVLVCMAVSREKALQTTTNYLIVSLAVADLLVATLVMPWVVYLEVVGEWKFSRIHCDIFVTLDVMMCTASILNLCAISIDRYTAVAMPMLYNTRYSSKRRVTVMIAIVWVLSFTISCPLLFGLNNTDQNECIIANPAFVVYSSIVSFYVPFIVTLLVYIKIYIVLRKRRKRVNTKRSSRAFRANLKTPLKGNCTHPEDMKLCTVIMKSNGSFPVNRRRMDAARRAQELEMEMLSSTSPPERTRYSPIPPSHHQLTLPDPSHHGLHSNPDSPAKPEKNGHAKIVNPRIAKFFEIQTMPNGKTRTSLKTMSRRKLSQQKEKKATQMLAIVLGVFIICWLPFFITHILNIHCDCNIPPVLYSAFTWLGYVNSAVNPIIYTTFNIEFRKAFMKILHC
Description: In vitro Affinity for Dopamine-D2 Receptors
Affinity of the compounds for dopamine-D2 receptors was determined using the receptor binding assay described by I. Creese, R. Schneider and S. H. Snyder: “[^3H]-Spiroperidol labels dopamine receptors in rat pituitary and brain”, Eur. J. Pharmacol., 46, 377-381,1977.
as §1

SMILES	Ki (serotonin reuptake sites) [nM]	Ki (dopamine-D2 receptors) [nM]	melting point
Cc1nc2c(C)cccn2c(=O)c1CCN1CC=C(c2c[nH]c3ccccc23)CC1 [Compound 22, 3-[2-[4-(1H-indol-3-yl)-1,2,3,6-tetrahydropyridin-1-yl]-ethyl]-2,9-dimethyl-4H-pyrido[1,2-a]pyrimidin-4-one]	1.58	7.94	–
Cc1ncn(C)c(=O)c1CCN1CC=C(c2c[nH]c3ccc(F)cc23)CC1 (as salt: salt) [Compound 33]	–	–	234 to 235 °C (dec.)
Cc1nc2n(c(=O)c1CCN1CC=C(c3c[nH]c4ccccc34)CC1)CCS2 [Compound 10]	1.58	15.8	–
Cc1nc2ccccn2c(=O)c1CCN1CC=C(c2c[nH]c3ccc(F)cc23)CC1 (as salt: salt) [Compound 7]	–	–	226 to 227 °C (dec.)
Cc1nc2ccccn2c(=O)c1CCN1CC=C(c2c[nH]c3ccc(F)cc23)CC1 [Compound 7]	0.316	15.8	–
Cc1nc2c(C)cccn2c(=O)c1CCN1CC=C(c2c[nH]c3ccc(F)cc23)CC1 (as salt: salt)	–	–	229 to 230 °C
Cc1nc2c(C)cccn2c(=O)c1CCN1CC=C(c2c[nH]c3ccccc23)CC1 (as salt: salt) [Compound 22, 3-[2-[4-(1H-indol-3-yl)-1,2,3,6-tetrahydropyridin-1-yl]-ethyl]-2,9-dimethyl-4H-pyrido[1,2-a]pyrimidin-4-one]	–	–	242 to 246 °C
Cc1ccn2c(=O)c(CCN3CC=C(c4c[nH]c5ccc(F)cc45)CC3)c(C)nc2c1 [Compound 21]	0.158	31.6	–
Cc1nc2sccn2c(=O)c1CCN1CC=C(c2c[nH]c3ccccc23)CC1 [Compound 11]	2.51	10	–
Cc1nc2ccccn2c(=O)c1CCN1CC=C(c2c[nH]c3ccccc23)CC1 [Compound 1]	1.58	20	–
Cc1nc2ccccn2c(=O)c1CCN1CC=C(c2c[nH]c3ccccc23)CC1 (as salt: HCl) [Compound 1]	–	–	205 °C (dec.)
COc1nc(C)c(CCN2CC=C(c3c[nH]c4ccccc34)CC2)c(=O)n1C (as salt: HCl) [Compound 18, 5-[2-[4-(1H-indol-3-yl)-1,2,3,6-tetrahydropyridin-1-yl]ethyl]-2-methoxy-3,6-dimethyl-3H-pyrimidin-4-one]	–	–	209 to 211 °C
Cc1ncn(C)c(=O)c1CCN1CC=C(c2c[nH]c3ccc(F)cc23)CC1 [Compound 33]	3.16	50.1	–
Cc1nc2cc(-c3ccccc3)ccn2c(=O)c1CCN1CC=C(c2c[nH]c3ccccc23)CC1 (as salt: salt) [Compound 27]	–	–	211 to 224 °C
COc1nc(C)c(CCN2CC=C(c3c[nH]c4ccccc34)CC2)c(=O)n1C [Compound 18, 5-[2-[4-(1H-indol-3-yl)-1,2,3,6-tetrahydropyridin-1-yl]ethyl]-2-methoxy-3,6-dimethyl-3H-pyrimidin-4-one]	0.794	31.6	–
CCc1ccn2c(=O)c(CCN3CC=C(c4c[nH]c5ccc(F)cc45)CC3)c(C)nc2c1 [Compound 24]	7.94	10	–
CSc1nc(C)c(CCN2CC=C(c3c[nH]c4ccc(F)cc34)CC2)c(=O)n1C [Compound 19]	25.1	6.31	–
CSc1nc(C)c(CCN2CC=C(c3c[nH]c4ccccc34)CC2)c(=O)[nH]1 [Compound 14]	50.1	100	–
CSc1nc(C)c(CCN2CC=C(c3cn(C)c4ccccc34)CC2)c(=O)n1C [Compound 20]	7.94	100	–
Cc1ccn2c(=O)c(CCN3CC=C(c4c[nH]c5ccccc45)CC3)c(C)nc2c1 [Compound 15]	3.98	7.94	–
CSc1nc(C)c(CCN2CC=C(c3c[nH]c4ccccc34)CC2)c(=O)n1C (as salt: salt)	–	–	245 to 246 °C
Cc1ccn2c(=O)c(CCN3CC=C(c4c[nH]c5ccccc45)CC3)c(C)nc2c1 (as salt: HCl) [Compound 15]	–	–	261 to 264 °C
CCc1ccn2c(=O)c(CCN3CC=C(c4c[nH]c5ccc(F)cc45)CC3)c(C)nc2c1 (as salt: salt) [Compound 24]	–	–	198 to 201 °C
Cc1nc2cc(-c3ccccc3)ccn2c(=O)c1CCN1CC=C(c2c[nH]c3ccccc23)CC1 [Compound 27]	0.316	63.1	–
CSc1nc(C)c(CCN2CC=C(c3c[nH]c4ccc(F)cc34)CC2)c(=O)n1C (as salt: salt) [Compound 19]	–	–	229 °C (dec.)
